Paper PMC10294390 (BMC Complementary Medicine and Therapies, 2023)
pIC50: −log10 of the molar value.

Tests used:
[1] = test system: CRL1554 normal human fibroblast cells; test: MTT assay, cytotoxicity of PPCs on normal fibroblasts; details: PPCs 20-160 µM, 72 h
Method: The cytotoxicity of a panel of 14 PPCs (Kmf, Cur, Que, Rsv, HHG, Hsp, BetA, IC3, Cmr, Sul, Irt, Lyc, Sil, and Snn) on CRL1554 normal human fibroblast cells was determined using the MTT assay [16]. CRL1554 cells were seeded (27 × 10^3 cells/well) into 96-well flat-bottomed plates and incubated at 37 °C for 18 h. Subsequently, the medium was removed, and the cells were washed with Hanks balanced salt solution (HBSS; 100 µl/well), and treated with various concentrations of PPCs (20, 40, 60, 80, 100, 120, 140 and 160 µM) for 72 h. The cells were then washed twice with HBSS, and 100 μl medium with 20 µl (5 mg/ml) MTT solution in PBS was added to each well and incubated at 37 °C for 4 h. The supernatants were aspirated, and 200 μL of dimethyl sulfoxide (DMSO) was added to dissolve the formazan crystals. Finally, the absorbance was measured using a multiwell spectrophotometer at two wavelengths (λ, 492 and 570 nm).

[2] = test system: SW1116 and SW837 cells; test: Mitochondrial membrane potential (MMP) analysis, MitoNIR dye, flow cytometry; format: cell-based, human; details: Cur 400 µM alone; 72 h; cell line not stated
Method: The inner mitochondrial membrane is rich in negatively charged glycoproteins and is therefore negatively charged. The accumulation of high concentrations of protons outside of the inner membrane establishes the transmembrane potential. The MMP was monitored using the NIR Mitochondrial Membrane Potential Assay kit (Abcam) according to the manufacturer’s protocol. Briefly, cells (2.5 × 10^5 cells/well) were seeded into 24-well plates and incubated in a non-CO2 incubator at 37 °C for 18 h. […] MitoNIR Dye (200X; 5 µl/ml) was added to each sample, followed by incubation at 37 °C for 15–30 min. The cells were subsequently pelleted and resuspended in 1 ml assay buffer. Flow cytometry, in the FL4 channel (λExcitation/λEmission, 635/660 nm), was used to monitor the fluorescence intensity.

[3] = test system: SW1116 human colon cancer cell line; test: MTT assay, single and schedule-dependent combined treatment; format: cell-based; details: Homo sapiens, SW 1116, PPC alone, MTT, Fig. 1B
Method: (§1) The plates were washed, and PPCs [Cur, Kmf, or Que (60 or 120 µM), or Rsv (40 or 80 µM)] were added, followed by incubation at 37 °C for 48 h. For inverted sequential treatment, PPC [Cur, Kmf, or Que (60 or 120 µM), or Rsv (40 or 80 µM)] was added and incubated at 37 °C for 24 h. […] Cell growth was monitored as previously described.

[4] = test system: SW837 human rectum cancer cell line; test: as above; format: cell-based; details: PPC alone, MTT, Fig. 1C; for pIC50: Homo sapiens, SW837, SW837, read-out: IC50; for cytotoxicity mean: SW837
Method: as §1

[5] = test system: SW1116 cells; test: DNA fragmentation assay; format: cell-based, human; details: Sora 5 µM, PPC 200 and 400 µM, simultaneous combinations, 72 h, Fig. 8A, C
Method: (§2) Induction of apoptosis was monitored using a DNA fragmentation assay following the manufacturer’s instructions (Apoptotic DNA Ladder Detection kit; Abcam). […] Cells were subsequently incubated at 37 °C for 72 h. The cells were then trypsinized, harvested, washed, pelleted, and lysed using Tris–EDTA (TE) lysis buffer (35 µl). Enzyme A solution (RNase; 5 µl) was added, followed by incubation at 37 °C for 10 min. Enzyme B solution (proteinase; 5 µl) was then added, followed by incubation at 50 °C for 30 min. Ammonium acetate solution (5 µl) and isopropanol (50 µl) were added to each sample and incubated at -20 °C for 10 min. Finally, the DNA was pelleted, washed with 0.5 ml 70% methanol, and dissolved in 30 µl DNA suspension buffer. The extracted DNA samples were loaded onto a 1.2% agarose gel, along with a loading marker (1 kb DNA ladder), and subjected to electrophoresis, using a running buffer containing 1.35 µg/ml ethidium bromide at 5 V/cm for 1 h. Ethidium bromide-stained DNA bands were visualized using transillumination with UV light.

[6] = test system: SW837 cells; test: DNA fragmentation assay; format: cell-based, human; details: Sora 5 µM, PPC 200 and 400 µM, sequential combinations, 72 h, Fig. 8B, D
Method: as §2

[7] = test system: SW1116 cells; test: Annexin V-FITC/PI double staining, flow cytometry; format: cell-based, human; details: SW1116, 72 h
Method: (§3) The levels of cell surface phosphatidylserine were determined to monitor the type of cell death and the kinetics of apoptosis. The CRC cell lines SW1116 and SW837 were seeded (2.5 × 10^5 cells/well) into 24-well plates and incubated in a non-CO2 incubator at 37 °C for 18 h. […] The cells were subsequently washed twice with HBSS and harvested using trypsin. Finally, the cells were double-stained using the Annexin V-FITC-Flous staining kit, according to the manufacturer’s instructions (Roche Diagnostic GmbH). Annexin V-Flous labelling solution containing Annexin V-FITC and PI (100 µl) was added to both the treated and control cell groups and incubated at 15–20 °C for 15 min. The cells (1 × 10^6 cells/ml) were then resuspended in binding buffer, and fluorescence was monitored using flow cytometry (FC500; Beckman Coulter, Inc.).

[8] = test system: SW837 cells; test: Annexin V-FITC/PI double staining, flow cytometry; format: cell-based, human; details: SW837, 72 h
Method: as §3

[9] = test system: SW1116 cells; test: Cell cycle analysis by flow cytometry (PI); format: cell-based, human; details: 72 h
Method: (§4) The cells were subsequently processed using a DNA-prep kit and DNA-Prep EPICS workstation. The cells were treated with a non-ionic detergent to permeabilize the cell membrane, followed by propidium iodide (PI) and RNase, and incubated at 15–20 °C for 15 min. The cells were resuspended in binding buffer at a concentration of 3–10 × 10^6 cells/ml for optimal staining. Fluorescence was measured using a flow cytometer (Beckman Coulter, Inc.), and the percentage of cells in the different phases of the cell cycle was calculated using the Phoenix statistical software package, Advanced DNA cell cycle software (Phoenix Flow System).

[10] = test system: SW837 cells; test: Cell cycle analysis by flow cytometry (PI); format: cell-based, human; details: 72 h
Method: as §4

[11] = test system: DLD-1 colon tumor model; set-up: method as in PMID 14692718; details: cited from earlier work

C=C(C)[C@@H]1CC[C@]2(C(=O)O)CC[C@]3(C)[C@H](CC[C@@H]4[C@@]5(C)CC[C@H](O)C(C)(C)[C@@H]5CC[C@]43C)[C@@H]12 [BetA, betulinic acid]
cytotoxicity [1]: 69–97.5%

COc1cc(/C=C/C(=O)CC(=O)/C=C/c2ccc(O)c(OC)c2)ccc1O [Cur, curcumin]
change in MMP (shift of MitoNIR red fluorescence) [2]: no change in MMP
pIC50 [3]: 4.22
pIC50 [4]: 3.82
induction of apoptosis as indicated by DNA fragmentation [5]: marked induction of apoptosis
DNA fragmentation [6]: increased levels of DNA fragmentation
cytotoxicity [1]: 0.0%
cytotoxicity ([1]; listed as curcumin): ≤ 20%
B1, percentage of necrotic cells ([7]; PPC 200 µM alone): 5.9%
B2, percentage of late apoptotic cells ([7]; PPC 200 µM alone): 11.5%
B4, percentage of early apoptotic cells ([7]; PPC 200 µM alone): 4.6%
B1, percentage of necrotic cells ([7]; PPC 400 µM alone): 18.2%
B2, percentage of late apoptotic cells ([7]; PPC 400 µM alone): 35.2%
B4, percentage of early apoptotic cells ([7]; PPC 400 µM alone): 3.8%
B1, percentage of necrotic cells ([8]; PPC 200 µM alone): 60.9%
B2, percentage of late apoptotic cells ([8]; PPC 200 µM alone): 26.6%
B4, percentage of early apoptotic cells ([8]; PPC 200 µM alone): 0.3%
B1, percentage of necrotic cells ([8]; PPC 400 µM alone): 67.9%
B2, percentage of late apoptotic cells ([8]; PPC 400 µM alone): 32.3%
B4, percentage of early apoptotic cells ([8]; PPC 400 µM alone): 0.0%
%G0/G1 (cells in G0/G1 phase) ([9]; PPC 200 µM alone): 49.1%
%G2/M (cells in G2/M phase) ([9]; PPC 200 µM alone): 13.6%
%S (cells in S phase) ([9]; PPC 200 µM alone): 37.1%
%G0/G1 (cells in G0/G1 phase) ([9]; PPC 400 µM alone): 28.5%
%G2/M (cells in G2/M phase) ([9]; PPC 400 µM alone): 11.3%
%S (cells in S phase) ([9]; PPC 400 µM alone): 60%
%SubG1 (cells in sub G1) ([9]; PPC 400 µM alone): 12%
%G0/G1 (cells in G0/G1 phase) ([10]; PPC 200 µM alone): 49.1%
%G2/M (cells in G2/M phase) ([10]; PPC 200 µM alone): 6.2%
%S (cells in S phase) ([10]; PPC 200 µM alone): 44.6%
%SubG1 (cells in sub G1) ([10]; PPC 200 µM alone): 14.7%
%G0/G1 (cells in G0/G1 phase) ([10]; PPC 400 µM alone): 58.1%
%G2/M (cells in G2/M phase) ([10]; PPC 400 µM alone): 2.4%
%S (cells in S phase) ([10]; PPC 400 µM alone): 39.4%
%SubG1 (cells in sub G1) ([10]; PPC 400 µM alone): 2.9%

CCc1c2c(nc3ccc(OC(=O)N4CCC(N5CCCCC5)CC4)cc13)-c1cc3c(c(=O)n1C2)COC(=O)[C@]3(O)CC [Irt, irinotecan]
delay of tumor cell growth [11]: 71%
cytotoxicity [1]: 44.9–81.9%

O=c1c(O)c(-c2ccc(O)cc2)oc2cc(O)cc(O)c12 [Kmf, kaempferol]
pIC50 [3]: 4.00
cytotoxicity mean [4]: 21 ± 3.5%
DNA fragmentation [6]: increased levels of DNA fragmentation
cytotoxicity [1]: 0.0–1.1%
cytotoxicity ([1]; listed as kaempferol): ≤ 20%
B1, percentage of necrotic cells ([8]; PPC 200 µM alone): 4.9%
B2, percentage of late apoptotic cells ([8]; PPC 200 µM alone): 20.5%
B4, percentage of early apoptotic cells ([8]; PPC 200 µM alone): 2.5%
B1, percentage of necrotic cells ([8]; PPC 400 µM alone): 36.8%
B2, percentage of late apoptotic cells ([8]; PPC 400 µM alone): 44.4%
B4, percentage of early apoptotic cells ([8]; PPC 400 µM alone): 2.8%
%G0/G1 (cells in G0/G1 phase) ([10]; PPC 200 µM alone): 60.4%
%G2/M (cells in G2/M phase) ([10]; PPC 200 µM alone): 5.9%
%S (cells in S phase) ([10]; PPC 200 µM alone): 33.6%
%SubG1 (cells in sub G1) ([10]; PPC 200 µM alone): 1.3%
%G0/G1 (cells in G0/G1 phase) ([10]; PPC 400 µM alone): 59.9%
%G2/M (cells in G2/M phase) ([10]; PPC 400 µM alone): 6.3%
%S (cells in S phase) ([10]; PPC 400 µM alone): 33.6%
%SubG1 (cells in sub G1) ([10]; PPC 400 µM alone): 2.7%

O=c1c(O)c(-c2ccc(O)c(O)c2)oc2cc(O)cc(O)c12 [Que, quercetin]
pIC50 [3]: 3.80
cytotoxicity mean [4]: 19 ± 3%
induction of apoptosis as indicated by DNA fragmentation [5]: marked induction of apoptosis
cytotoxicity [1]: 0.0–16.2%
cytotoxicity ([1]; listed as quercetin): ≤ 20%
B1, percentage of necrotic cells ([7]; PPC 200 µM alone): 4.5%
B2, percentage of late apoptotic cells ([7]; PPC 200 µM alone): 24.5%
B4, percentage of early apoptotic cells ([7]; PPC 200 µM alone): 4.2%
B1, percentage of necrotic cells ([7]; PPC 400 µM alone): 31.1%
B2, percentage of late apoptotic cells ([7]; PPC 400 µM alone): 34.1%
B4, percentage of early apoptotic cells ([7]; PPC 400 µM alone): 0.8%
%G0/G1 (cells in G0/G1 phase) ([9]; PPC 200 µM alone): 39.6%
%G2/M (cells in G2/M phase) ([9]; PPC 200 µM alone): 15.0%
%S (cells in S phase) ([9]; PPC 200 µM alone): 45.0%
%G0/G1 (cells in G0/G1 phase) ([9]; PPC 400 µM alone): 38.5%
%G2/M (cells in G2/M phase) ([9]; PPC 400 µM alone): 14.1%
%S (cells in S phase) ([9]; PPC 400 µM alone): 47.2%
%SubG1 (cells in sub G1) ([9]; PPC 400 µM alone): 8.4%

COc1ccc([C@@H]2CC(=O)c3c(O)cc(O)cc3O2)cc1O [Hsp, hesperetin]
cytotoxicity [1]: 0.0–4.4%

COC(=O)C[C@](O)(CCCC(C)(C)O)C(=O)O[C@@H]1C(OC)=C[C@]23CCCN2CCc2cc4c(cc2[C@H]13)OCO4 [HHG, homoharringtonine]
cytotoxicity [1]: 99–100%

CC(C)=CCC/C(C)=C/C=C/C(C)=C/C=C/C(C)=C/C=C/C=C(C)/C=C/C=C(C)/C=C/C=C(\C)CCC=C(C)C [Lyp, lycopene]
cytotoxicity [1]: 39.7–66.6%

O=c1ccc2ccccc2o1 [Cmr, coumarin]
cytotoxicity [1]: 7.4–11.34%

COc1cc(C2Oc3cc([C@H]4Oc5cc(O)cc(O)c5C(=O)[C@@H]4O)ccc3OC2CO)ccc1O (stereo partly shown) [Sin, silibinin]
cytotoxicity [1]: 0.0–5.54%

Oc1ccc(/C=C/c2cc(O)cc(O)c2)cc1 [Rsv, resveratrol]
pIC50 [3]: 4.15
pIC50 [4]: 3.85
cytotoxicity [1]: 0.0–3.3%
cytotoxicity ([1]; listed as resveratrol): ≤ 20%

OCc1c[nH]c2ccccc12 [I3C, indol-3-carbinol]
cytotoxicity [1]: 0.2–9.2%

CC1=C(CC(=O)O)c2cc(F)ccc2/C1=C\c1ccc([S+](C)[O-])cc1 (stereo not shown) [Sul, sulanidac]
cytotoxicity [1]: 38.94–98%
